Test results from US9533937B2, “Use of metal scavengers for removal of ruthenium residues” (Apeiron Synthesis S.A., priority 2013, dated 2017).

Experiment: Solubility in solvents
Format: physicochemical

[C-]#[N+]CC(=O)[O-].[K+] [CNCH2CO2K]
solubility in solvents: well soluble only in very polar solvents such as water and alcohols
